The text below walks through data of paper PMC10931745 (International Journal of Molecular Sciences, 2024).

Structures are written as SMILES.

Test [1] has as its system NO production in LPS-stimulated RAW 264.7 macrophages. In words: Griess assay, NO production. Type of test: cell-based, murine. The conditions noted are these: 25 µM, LPS 1 µg/mL, 24 h. As for the experimental part:
The Griess assay was performed using RAW 264.7 murine macrophages to study the anti-inflammatory activity in terms of NO production. RAW 264.7 cells were plated in the 48 multi-wells and, after 24 h, treated with the tested molecules (25 µM) and the lipopolysaccharide (LPS, Sigma Aldrich, Milan, Italy) at a final concentration of 1 µg/mL. LPS is able to induce inflammation by stimulating NO production in immune system cells such as macrophages. After 24 h, the cell medium Griess reagent (Sigma Aldrich, Milan, Italy) was mixed in with a ratio of 1:1. The Griess reagent allowed for the quantification of NO released by macrophages in the treatment medium. The mixture was left for 30 min under agitation and, subsequently, the absorbance at 540 nm was measured using a multiplate reader. The obtained absorbance allowed us to calculate the NO production % compared to the absorbance obtained for the positive control, in which the cells were treated with LPS.
On the technique in general: The Griess reaction detects nitrite, a stable product of nitric oxide.

Test [2] has as its system ROS production in BALB/3T3 fibroblasts. In words: Intracellular ROS detection with DCFH2-DA. Type of test: cell-based, murine. The conditions noted are these: 25 µM, 24 h pre-treatment. As for the experimental part: In vitro detection of intracellular ROS on fibroblasts BALB/3T3 using DCFH2-DA The assay to evaluate the in vitro antioxidant activity was carried out using the murine BALB/3T3 fibroblasts that were plated in a white 96 MW and then treated with the complexes at a concentration of 25 µM for 24 h. Menadione (25 µM) was then added for 15 min to induce ROS production. After treatment, the cells were washed with PBS and treated with 25 μM 2′-7′-dichlorofluorescein diacetate (DCFH2-DA, Sigma-Aldrich, St. Louis, MO, USA), and then they were incubated for 40 min at 37 °C and 5% CO2. The probe DCFH2-DA penetrates cells where it is […] into a non-fluorescent form (DCFH2) by endogenous esterases. In the presence of intracellular ROS, non-fluorescent H2DCF is oxidized to the fluorescent 2′,7′-dichlorofluorescein (DCF). Then, the cells were washed with PBS and the fluorescence was detected using a multiplate reader (λex = 485 nm, λem = 535 nm). Based on the obtained fluorescence values, the ROS production inhibition % (IROS) vs. menadione was calculated using the following formula:(1) IROS vs. Menadione (%)=FMen−FSample/FMen∗100 where FMen represents the mean fluorescence obtained after treatment with menadione alone and Fsample represents the mean fluorescence obtained after the co-treatment with the complexes and menadione.

In another test the test system is MCF-7. Nature of the test: MTT cell viability assay. Type of test: cell-based, human. As to conditions: 72 h. In a few lines:
(§1)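 Cancer lines MCF-7 and MDA-MB-231 and non-tumour MCF-10A cells were treated 72 h with compound at 0.1–500 µM. Viability read by MTT; IC50 calculated from percent of untreated control.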
In general terms: Tetrazolium dyes change colour on reduction, which living cells bring about.

The test system of another test is MDA-MB-231. Nature of the test: MTT cell viability assay. Type of test: cell-based, human. As to conditions: 72 h. In short, it runs like this:
as §1

For test [3], the system named is NF-κB localization in MDA-MB-231 cells. Nature of the test: Immunofluorescence, NF-κB localization. Type of test: cell-based, human. As to conditions: 15 µM. As for the experimental part:
(§2) After a PBS wash, cells were fixed using cold methanol (15 min at −20 °C) and incubated overnight at 4 °C with the primary antibodies raised against NF-κB, iNOS, TNF-α, and COX-1 and 2 (Santa Cruz Biotechnology Inc., Santa Cruz, CA, USA) diluted in BSA 2%, as previously described. […] DAPI (Sigma Aldrich, Milan, Italy) 0.2 µg/mL was added for 10 min for nuclei counterstaining. A fluorescence microscope (Leica DM 6000) was used for visualizing images, and LAS-X software 3.5.7.23225 was used for acquisition and processing.

The subject of test [4] is TNF-α expression in MDA-MB-231 cells. Nature of the test: Immunofluorescence, TNF-α expression. As to conditions: 15 µM, 24 h. In kind it is cell-based, human. As for the experimental part: as §2
The target in test [5] is T1, human topoisomerase I (hTopoI) (Homo sapiens, UniProt P11387).
T1 construct: purchased TopoGEN, Port Orange, FL, USA
T1 sequence (P11387 1-765): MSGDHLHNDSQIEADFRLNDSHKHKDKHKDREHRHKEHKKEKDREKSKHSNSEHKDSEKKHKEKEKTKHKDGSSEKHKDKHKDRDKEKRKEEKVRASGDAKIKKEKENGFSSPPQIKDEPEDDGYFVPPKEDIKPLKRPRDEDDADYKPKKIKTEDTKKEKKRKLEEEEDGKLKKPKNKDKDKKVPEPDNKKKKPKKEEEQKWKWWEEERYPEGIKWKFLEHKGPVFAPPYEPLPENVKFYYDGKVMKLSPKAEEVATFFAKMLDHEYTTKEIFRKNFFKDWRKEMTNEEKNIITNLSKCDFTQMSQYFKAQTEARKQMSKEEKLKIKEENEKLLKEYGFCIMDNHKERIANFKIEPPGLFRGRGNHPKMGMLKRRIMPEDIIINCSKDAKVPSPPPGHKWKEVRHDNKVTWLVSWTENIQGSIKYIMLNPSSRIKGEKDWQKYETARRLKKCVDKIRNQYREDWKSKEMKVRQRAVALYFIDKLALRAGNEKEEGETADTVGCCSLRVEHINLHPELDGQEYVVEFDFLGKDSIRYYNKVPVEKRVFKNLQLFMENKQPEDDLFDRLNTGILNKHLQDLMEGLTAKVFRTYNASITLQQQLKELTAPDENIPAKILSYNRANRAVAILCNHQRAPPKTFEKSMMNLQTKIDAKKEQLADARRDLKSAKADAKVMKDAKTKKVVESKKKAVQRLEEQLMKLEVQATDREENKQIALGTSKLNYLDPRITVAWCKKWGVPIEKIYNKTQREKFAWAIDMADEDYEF
Nature of the test: Human topoisomerase I relaxation assay. Type of test: biochemical. The conditions noted are these: 1 µM, supercoiled pHOT1 DNA. As for the experimental part:
The human topoisomerase I relaxation assay was performed as reported in [86]. Shortly, the recombinant human topo I (TopoGEN, Port Orange, FL, USA) was incubated with the super-coiled pHOT1, in the presence or not of the tested compounds, at the indicated concentrations. The reaction products were then allowed to separate through the agarose gel electrophoresis, and ethidium bromide-stained DNA was visualized under UV light.

As to `Cn1c(=O)c2c(n(C)[c]([Au-][I])[n+]2CC(O)c2ccccc2)n(C)c1=O` (racemic) [AuL1, 1,3,7-Trimethylxanthin-9-[(2-hydroxy-2-phenyl)ethyl-8-ylidene]Au(I) Iodide], in test [1], the “Reduction in NO production” value is reported as approximately 6.23%. Also, the “ROS level reduction vs. menadione” value in test [2] was “approximately 69%”. Also, the figures for the 50% inhibitory concentration (IC50) in the test on MCF-7 and in the test on MDA-MB-231 were 73.8 ± 1.1 µM and 14.7 ± 1.1 µM, respectively. The NF-κB intracellular localization result in test [3] was “prevalently located in the cytoplasm”. The “Reduction in TNF-α expression (fluorescence quantification)” value in test [4] is on record as “about 60%”. The “Inhibition of hTopo I supercoil relaxing activity” value in test [5] is on record as “totally inhibited”.

As for `CC(=O)[O][Ag-][c]1n(C)c2c(c(=O)n(C)c(=O)n2C)[n+]1C1CCCCC1O` (centres unmarked) [AgL2OAc, 1,3,7-Trimethylxanthin-9-[cyclohexan-2-ol-8-ylidene]Ag(I) Acetate], the “Reduction in NO production” value in test [1] was “about 5.20%”. For the same compound, in test [2], the “ROS level reduction vs. menadione” value was approximately 59%. Further, the IC50 was 28.7 ± 1 µM in the test with MCF-7 and 19.4 ± 1 µM in the test on MDA-MB-231. In test [3], the NF-κB intracellular localization result is “prevalently located in the cytoplasm”. Besides, in test [4], the “Reduction in TNF-α expression (fluorescence quantification)” value is approximately 50%. In addition, the “Inhibition of hTopo I supercoil relaxing activity” value in test [5] was “totally inhibited”.

As a reminder, the IC50 is the concentration that inhibits the measured activity by half.
